# What was measured:
# [1] = target: T1, recombinant tobacco etch virus (TEV) protease (Tobacco etch virus, UniProt P04517); experiment: Cysteine protease inhibition assay, TEV protease (GST-gp78 cleavage, SDS-PAGE); format: biochemical; conditions: 3 at 100 μM, compared to a DMSO control
# T1 construct: recombinant tobacco etch virus (TEV) protease
# Procedure: The activity of recombinant tobacco etch virus (TEV) protease was determined by cleavage of a fusion protein containing a TEV cleavage site between GST and a 17 kDa fragment of human gp78. TEV and GST-gp78 were incubated at 37°C for 10 min at a substrate:enzyme mass ratio of 10:1. The reaction was stopped by adding 3× loading buffer (150 mM Tris–HCl pH 6.8, 300 mM DTT, 6% (w/v) SDS, 0.06% (w/v) bromophenol blue, 30% (v/v) glycerol). Samples were heated at 95°C for 3 min and separated by 4–20% gradient SDS-PAGE.
# Transglutaminases and cysteine proteases have a similar catalytic mechanism involving an active site cysteine and formation of a thioacyl intermediate. […] To test this hypothesis, the inhibition of two cysteine proteases, human caspase-1 and recombinant tobacco etch virus (TEV) protease by 3 at 100 μM were tested using a chromogenic and SDS-PAGE assay, respectively (Figure 9). […] Neither human caspase-1 nor TEV are endogenous proteins in A. gambiae, which may well contain other endogenous targets of 1–3, not least the two other transglutaminases in the A. gambiae genome.
# [2] = target: T2, AgTG3 (Anopheles gambiae, UniProt D2K8K8); experiment: Covalent modification of AgTG3 by ESI-MS and tandem MS/MS; format: binding
# Procedure: Recombinant AgTG3 (20 μM) was dialyzed against HEPES buffer containing 100 mM NaCl, 10 mM CaCl2, and 5% glycerol. Inhibitors were added to a final concentration of 100 μM and incubated overnight. Samples were subsequently injected on a Waters ACQUITY Ultraperformance liquid chromatography (UPLC) system coupled to an ACQUITY UPLC Photodiode Array (PDA) λ detector. Electrospray ionization (ESI) mass spectrograms were collected in the positive ion mode and subsequently transformed for molecular weight determination using MASSLYNX software (Waters).
# Samples prepared for ESI-MS (50 μL) were pretreated with 2 μL of 10 g/l trypsin (Sigma) for 1 h at 37°C. The reaction was stopped by formic acid, and the sample was submitted to the W.M. Keck Biotechnology Resource Laboratory (Yale University) for tandem MS/MS proteomics analysis. Results were further analysed using the online MassMatrix server.
# DHI inhibitors form a thioether bond with the TG active site cysteine, a modification that should be detectable by mass spectrometry. […] AgTG3 was treated with 100 μM 3 overnight and the intact protein subsequently analyzed by ESI-MS (Figure 8A). The parent mass for unmodified AgTG3 was detected at m/z = 84173 Da. […] The expected m/z shift for reaction with 3 is +470, however, […] than what was observed. To confirm the mass shift corresponds to modification of the active site cysteine with 3, treated AgTG3 was subjected to tryptic digestion and LC-MS/MS analysis. […] No other modified cysteines were detected in the protein. Taken together, the secondary in vitro assays of cross-linking and covalent modification confirm 1–3 as active site inhibitors of AgTG3.
# [3] = target: T2, AgTG3; experiment: biochemical; conditions: dose–response curves in the range of 0.5–100 μM, FITC-CAD plate assay; read-out: IC50 for inhibition of AgTG3
# Procedure: Plugin-C (25 μg/well) was incubated in black 96-well Ni-coated plates (Pierce 15342) for 2 h at room temperature or overnight at 4°C. Plates were washed three times with 200 μL of TBS and loaded with 0.5 μg of AgTG3 in 50 μL TBS buffer. DHI inhibitors were added for 1 h to block the enzyme, followed by 50 μL of 2× assay buffer (2× TBS, 20 mM CaCl2, 100 μM FITC-CAD, 2 mM DTT). Wells were incubated for 60 min at room temperature, washed three times with 200 μL of TBS, and filled to a final volume of 100 μL for fluorescence measurements in a microplate reader (Biotek Synergy 2). The z-score was calculated based on the mean and standard deviation of three replicates of inhibitor compared to a DMSO control, zi=x¯DMSO-x¯i/σDMSO+σi .
# The targeted chemical library was screened for inhibition of AgTG3 at 100 μM in a FITC-CAD plate assay (Figure 3A), performed in triplicate as previously described. Hit-calling was based on >67% decrease in fluorescence compared to DMSO and z > 5. Seven compounds fulfilled these criteria in the primary assay.
# To verify the results of this preliminary assay, dose–response curves in the range of 0.5–100 μM were determined for 27 structurally related compounds within the targeted library (Additional file 3: Table S2 and Additional file 4: Table S3). […] Selected stereoisomers present in the targeted library were compared in equivalent dose–response assays. Inhibition of AgTG3 was specific for the (S)-DHI isomer of 1 (Figure 4A), the (R) isomer (4) displaying no activity (IC50 > 100 μM).
# T2 sequence (D2K8K8 entry or part of it): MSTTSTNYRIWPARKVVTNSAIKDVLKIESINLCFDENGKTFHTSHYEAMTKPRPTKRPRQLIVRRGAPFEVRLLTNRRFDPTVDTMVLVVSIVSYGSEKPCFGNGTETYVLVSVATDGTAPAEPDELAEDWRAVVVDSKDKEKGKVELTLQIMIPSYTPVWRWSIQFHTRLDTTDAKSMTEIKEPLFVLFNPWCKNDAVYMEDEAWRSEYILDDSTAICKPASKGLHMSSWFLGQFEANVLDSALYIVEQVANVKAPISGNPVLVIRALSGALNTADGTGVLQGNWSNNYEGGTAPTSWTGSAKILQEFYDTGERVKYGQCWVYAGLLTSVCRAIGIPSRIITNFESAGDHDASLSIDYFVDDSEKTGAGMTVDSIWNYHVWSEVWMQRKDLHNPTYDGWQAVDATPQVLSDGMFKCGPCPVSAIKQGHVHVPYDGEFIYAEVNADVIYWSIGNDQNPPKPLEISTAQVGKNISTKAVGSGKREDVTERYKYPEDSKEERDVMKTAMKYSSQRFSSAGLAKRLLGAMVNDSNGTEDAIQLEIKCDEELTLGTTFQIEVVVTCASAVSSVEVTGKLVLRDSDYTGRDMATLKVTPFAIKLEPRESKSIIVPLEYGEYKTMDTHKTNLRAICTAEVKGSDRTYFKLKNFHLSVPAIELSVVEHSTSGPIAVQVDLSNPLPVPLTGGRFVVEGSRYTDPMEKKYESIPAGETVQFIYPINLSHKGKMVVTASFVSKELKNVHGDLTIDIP
# T1 sequence (P04517 2038-2279): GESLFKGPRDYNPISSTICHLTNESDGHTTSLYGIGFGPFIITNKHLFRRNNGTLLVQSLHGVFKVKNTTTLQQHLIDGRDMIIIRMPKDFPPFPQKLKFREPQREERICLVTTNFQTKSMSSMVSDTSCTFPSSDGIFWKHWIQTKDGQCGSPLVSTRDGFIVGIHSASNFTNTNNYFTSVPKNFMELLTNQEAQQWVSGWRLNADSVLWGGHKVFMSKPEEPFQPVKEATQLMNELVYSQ
smiles,measurement,setting,value
O=C(N[C@@H](Cc1c[nH]c2ccccc12)C(=O)NC[C@@H]1CC(Br)=NO1)OCc1cnc2ccccc2c1,Inhibition of TEV protease,[1],no inhibition of the protease
same,Mass shift of intact AgTG3 after treatment,"[2]; 100 μM overnight, ESI-MS",+465 m/z
same,Mass shift of tryptic peptide containing AgTG3 active site cysteine,"[2]; 100 μM overnight, tryptic digestion, LC-MS/MS",+469 amu
same,Site of covalent modification of AgTG3,"[2]; y ion fragmentation, no other modified cysteines detected",specific modification of Cys 323
same,IC50,[3],6.1 µM
